According to PubChem BioAssay AID248 (DTP/NCI, 2004):
“And” between values parts separate entries of the source, which are not always exact repeats. Equal values may be shown once. Toxic doses and inconclusive results are not listed. No stated cut-off is given here; in the data, active means T/C of 150% or more; inactive means T/C below 125%.

Test system: L1210 leukemia ip in BDF1 mice, survival T/C
Assay: NCI In Vivo Anticancer Drug Screen. Data for tumor model L1210 Leukemia (intraperitoneal) in B6D2F1 (BDF1) mice
Settings: endpoint: mean survival time, higher = longer survival
Method in brief: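 Tumor was transplanted into mice, which were then dosed with test compound or vehicle alone. Survival was recorded for each group, and the treated figure was expressed relative to the control figure.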

[1] = dose: 100.0 mg/kg/injection, schedule: Q01DX001 (ip), vehicle: saline
[2] = dose: 200.0 mg/kg/injection, schedule: Q01DX001 (ip), vehicle: saline
[3] = dose: 400.0 mg/kg/injection, schedule: Q01DX001 (ip), vehicle: saline
[4] = dose: 100.0 mg/kg/injection, schedule: Q04DX003 (ip), vehicle: saline
[5] = dose: 200.0 mg/kg/injection, schedule: Q04DX003 (ip), vehicle: saline
[6] = dose: 100.0 mg/kg/injection, schedule: Q01DX009 (ip), vehicle: saline with Tween-80
[7] = dose: 200.0 mg/kg/injection, schedule: Q01DX009 (ip), vehicle: saline with Tween-80
[8] = dose: 400.0 mg/kg/injection, schedule: Q04DX003 (ip), vehicle: saline
[9] = dose: 25.0 mg/kg/injection, schedule: Q04DX002 (ip), vehicle: saline
[10] = dose: 50.0 mg/kg/injection, schedule: Q04DX002 (ip), vehicle: saline
[11] = dose: 100.0 mg/kg/injection, schedule: Q04DX002 (ip), vehicle: saline
[12] = dose: 75.0 mg/kg/injection, schedule: Q01DX001 (ip), vehicle: saline
[13] = dose: 150.0 mg/kg/injection, schedule: Q01DX001 (ip), vehicle: saline

Measured: T/C

ICc1cccc(CI)c1
inactive: dose: 6.25 mg/kg/injection, schedule: Q01DX009 (ip), vehicle: carboxymethylcellulose (CMC) 100 % of control | dose: 6.25 mg/kg/injection, schedule: Q04DX003 (ip), vehicle: carboxymethylcellulose (CMC) 111 % of control | dose: 12.5 mg/kg/injection, schedule: Q01DX001 (ip), vehicle: other 95 % of control | dose: 12.5 mg/kg/injection, schedule: Q01DX009 (ip), vehicle: carboxymethylcellulose (CMC) 94 % of control | dose: 12.5 mg/kg/injection, schedule: Q04DX003 (ip), vehicle: carboxymethylcellulose (CMC) 97 % of control | dose: 25.0 mg/kg/injection, schedule: Q01DX001 (ip), vehicle: other 95 % of control | dose: 25.0 mg/kg/injection, schedule: Q04DX003 (ip), vehicle: carboxymethylcellulose (CMC) 92 % of control

CCOC(=S)c1ccc(NS(=O)(=O)c2ccc(C)cc2)cc1
inactive: dose: 100.0 mg/kg/injection, schedule: Q01DX001 (ip), vehicle: saline with Tween-80 100 % of control | dose: 200.0 mg/kg/injection, schedule: Q01DX001 (ip), vehicle: saline with Tween-80 107 % of control | dose: 400.0 mg/kg/injection, schedule: Q01DX001 (ip), vehicle: saline with Tween-80 102 % of control

O=S(=O)(CBr)CBr
inactive: [1] 98 % of control | [2] 95 % of control | [3] 112 % of control

CCN(CC)CCn1ncc2c1C1(C)CCC2C1(C)C (stereo not given)
inactive: dose: 25.0 mg/kg/injection, schedule: Q01DX009 (ip), vehicle: saline + alcohol 100 % of control | dose: 50.0 mg/kg/injection, schedule: Q01DX009 (ip), vehicle: saline + alcohol 104 % of control | dose: 100.0 mg/kg/injection, schedule: Q01DX009 (ip), vehicle: saline + alcohol 102 % of control | [4] 101 % of control | [5] 102 % of control

NC(=O)C1=Cc2cc(Cl)cc(Cl)c2OC1
inactive: [6] 93 % of control | [7] 93 % of control | dose: 400.0 mg/kg/injection, schedule: Q01DX009 (ip), vehicle: saline with Tween-80 98 % of control

CC(Br)C(=O)NC(CC(N)=O)C(=O)O (stereo not given)
inactive: [6] 93 % of control | [7] 91 % of control

CNC1C(OC2C(OC)OC(C)C2(O)CO)OC(CO)C(O)C1O (stereo not given)
inactive: [4] 110 % of control | [5] 97 % of control | [8] 97 % of control

CCCCCCCCN1CCCC(OC(=O)N(C)C)C1 (stereo not given)
inactive: [9] 106 % of control | [10] 95 % of control | [11] 112 % of control

CCN(CC)CCOC(=O)C(O)(c1ccccc1)c1ccccc1
inactive: [9] 101 % of control | [10] 93 % of control | [11] 93 % of control and 115 % of control

COc1cccc2c1C(=O)OC2=O
inactive: dose: 75.0 mg/kg/injection, schedule: Q01DX009 (ip), vehicle: Klucel (hydroxypropylcellulose) (HPC) 88 % of control | dose: 150.0 mg/kg/injection, schedule: Q01DX009 (ip), vehicle: Klucel (hydroxypropylcellulose) (HPC) 90 % of control | dose: 300.0 mg/kg/injection, schedule: Q01DX009 (ip), vehicle: Klucel (hydroxypropylcellulose) (HPC) 88 % of control

CC1CC(=O)NC(N)=N1 (stereo not given)
inactive: dose: 100.0 mg/kg/injection, schedule: Q01DX Z (ip), vehicle: saline 110 % of control | dose: 200.0 mg/kg/injection, schedule: Q01DX Z (ip), vehicle: saline 92 % of control

O=C(N/N=C/c1cccc([N+](=O)[O-])c1)c1cccc2ccccc12
inactive: [2] 92 % of control | [3] 95 % of control

CNC(=O)c1ccc[n+](Cc2ccccc2)c1
inactive: dose: 18.75 mg/kg/injection, schedule: Q01DX009 (ip), vehicle: saline 94 % of control | dose: 37.5 mg/kg/injection, schedule: Q01DX009 (ip), vehicle: saline 100 % of control | dose: 37.5 mg/kg/injection, schedule: Q04DX003 (ip), vehicle: saline 97 % of control | [12] 106 % of control | dose: 75.0 mg/kg/injection, schedule: Q01DX009 (ip), vehicle: saline 92 % of control | dose: 75.0 mg/kg/injection, schedule: Q04DX003 (ip), vehicle: saline 101 % of control | [13] 101 % of control | dose: 150.0 mg/kg/injection, schedule: Q04DX003 (ip), vehicle: saline 100 % of control

CS(=O)(=O)C1(S(C)(=O)=O)Cc2ccccc2C1
inactive: dose: 100.0 mg/kg/injection, schedule: Q04DX003 (ip), vehicle: saline with Tween-80 91 % of control | dose: 200.0 mg/kg/injection, schedule: Q04DX003 (ip), vehicle: saline with Tween-80 92 % of control | dose: 400.0 mg/kg/injection, schedule: Q04DX003 (ip), vehicle: saline with Tween-80 100 % of control

CCOC(=O)c1ccc(NCc2nc3nc(N)nc(N)c3[nH]2)cc1
inactive: dose: 75.0 mg/kg/injection, schedule: Q01DX001 (ip), vehicle: other 102 % of control | dose: 150.0 mg/kg/injection, schedule: Q01DX001 (ip), vehicle: other 97 % of control | dose: 300.0 mg/kg/injection, schedule: Q01DX001 (ip), vehicle: other 97 % of control

Nc1nc2nc(-c3ccccc3)nc(N)c2nc1-c1ccc(N(CCO)CCO)cc1
inactive: dose: 45.0 mg/kg/injection, schedule: Q01DX001 (ip), vehicle: saline 102 % of control | dose: 67.0 mg/kg/injection, schedule: Q01DX001 (ip), vehicle: saline 108 % of control | [13] 91 % of control | [2] 95 % of control | [3] 95 % of control

COc1ccc(-n2cc3c(=O)nccc-3c3ccccc32)cc1OC
inactive: [12] 95 % of control | [13] 89 % of control

COC(=O)C1CCCN1C(=O)C1CSC(C)(C)N1C=O (stereo not given)
inactive: [4] 103 % of control | [5] 92 % of control | [8] 92 % of control

CSCC1OC(n2nnc3c(N)ncnc32)C(O)C1O (stereo not given)
inactive: dose: 100.0 mg/kg/injection, schedule: Q01DX001 (ip), vehicle: Klucel (hydroxypropylcellulose) (HPC) 100 % of control | dose: 200.0 mg/kg/injection, schedule: Q01DX001 (ip), vehicle: Klucel (hydroxypropylcellulose) (HPC) 103 % of control

CC(=O)c1ccccc1C
inactive: [1] 104 % of control | [2] 112 % of control

Cc1cc(N=Nc2ccc([N+](=O)[O-])cc2)ccc1N(C)C
inactive: dose: 100.0 mg/kg/injection, schedule: Q01DX001 (ip), vehicle: other 97 % of control | dose: 200.0 mg/kg/injection, schedule: Q01DX001 (ip), vehicle: other 101 % of control | dose: 400.0 mg/kg/injection, schedule: Q01DX001 (ip), vehicle: other 89 % of control

Nc1nc(N)c(N=Nc2ccc(S(=O)(=O)Nc3ncccn3)cc2)cc1N=Nc1ccccc1
inactive: dose: 100.0 mg/kg/injection, schedule: Q01DX001 (ip), vehicle: carboxymethylcellulose (CMC) 101 % of control | dose: 200.0 mg/kg/injection, schedule: Q01DX001 (ip), vehicle: carboxymethylcellulose (CMC) 95 % of control | dose: 400.0 mg/kg/injection, schedule: Q01DX001 (ip), vehicle: carboxymethylcellulose (CMC) 103 % of control

N=C(N)SCc1ccc(CSC(=N)N)cc1
inactive: dose: 12.5 mg/kg/injection, schedule: Q04DX002 (ip), vehicle: saline with Tween-80 102 % of control | dose: 25.0 mg/kg/injection, schedule: Q01DX009 (ip), vehicle: saline 91 % of control | dose: 25.0 mg/kg/injection, schedule: Q04DX002 (ip), vehicle: saline with Tween-80 94 % of control | dose: 25.0 mg/kg/injection, schedule: Q04DX003 (ip), vehicle: saline 103 % of control | dose: 50.0 mg/kg/injection, schedule: Q01DX009 (ip), vehicle: saline 97 % of control | dose: 50.0 mg/kg/injection, schedule: Q04DX003 (ip), vehicle: saline 102 % of control | [4] 105 % of control
